Assay results: the supplement of paper PMC8920030

Columns and labels:
Settings in all cases: growth mode: biofilm, 24 h; exposure time: 24 h
colistin [1] = compound: T1, CCC(C)CCCC(=O)N[C@@H](CCN)C(=O)N[C@H](C(=O)N[C@@H](CCN)C(=O)N[C@H]1CCNC(=O)[C@H]([C@@H](C)O)NC(=O)[C@H](CCN)NC(=O)[C@H](CCN)NC(=O)[C@H](CC(C)C)NC(=O)[C@@H](CC(C)C)NC(=O)[C@H](CCN)NC1=O)[C@@H](C)O [colistin]; test: minimum concentration eradicating biofilm below detection limit (MCK-E); higher = more biofilm tolerance
Description: (§1)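 Clinical P. aeruginosa isolates were grown as static biofilms for 24 h at 37 °C in LB in half-area 96-well plates, then exposed for 24 h to colistin at 1, 4, 16, 64, 256 or […]. Surviving CFU were counted by spotting serial dilutions. MCK is the lowest tested concentration giving the stated log reduction in CFU versus an untreated control; '>1024' means the reduction was not reached at the top dose, and 1 is the lowest dose tested (≤1).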

tobramycin [2] = compound: T2, NC[C@H]1O[C@H](O[C@H]2[C@H](O)[C@@H](O[C@H]3O[C@H](CO)[C@@H](O)[C@H](N)[C@H]3O)[C@H](N)C[C@@H]2N)[C@H](N)C[C@@H]1O [tobramycin]; test: as above
Description: as §1, with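 “tobramycin” for “colistin”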

colistin [3] = compound: T1, colistin; test: minimum concentration of killing, 1-log CFU reduction of biofilm (MCK90); higher = more biofilm tolerance
Description: as §1

colistin [4] = compound: T1, colistin; test: minimum concentration of killing, 2-log CFU reduction of biofilm (MCK99); higher = more biofilm tolerance
Description: as §1

tobramycin [5] = compound: T2, tobramycin; test: minimum concentration of killing, 1-log CFU reduction of biofilm (MCK90); higher = more biofilm tolerance
Description: as §1, with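 “tobramycin” for “colistin”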

tobramycin [6] = compound: T2, tobramycin; test: minimum concentration of killing, 2-log CFU reduction of biofilm (MCK99); higher = more biofilm tolerance
Description: as §1, with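 “tobramycin” for “colistin”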

colistin [7] = compound: T1, colistin; test: minimum concentration of killing, 4-log CFU reduction of biofilm (MCK99.99); higher = more biofilm tolerance
Description: as §1

tobramycin [8] = compound: T2, tobramycin; test: as above
Description: as §1, with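 “tobramycin” for “colistin”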

In the case of “Pseudomonas aeruginosa clinical isolate ESP081”, the “minimum concentration eradicating biofilm below detection limit” value (colistin [1]) is reported as 256 µg/mL, the “minimum concentration eradicating biofilm below detection limit” value (tobramycin [2]) is reported as 64 µg/mL and the “minimum concentration of killing” value (colistin [3]) is reported as 256 µg/mL. For the same test system, the “minimum concentration of killing” value (colistin [4]) was 256 µg/mL, the “minimum concentration of killing” value (tobramycin [5]) was 4 µg/mL and the “minimum concentration of killing” value (tobramycin [6]) was 16 µg/mL. The “minimum concentration of killing” value (colistin [7]) was 256 µg/mL and the “minimum concentration of killing” value (tobramycin [8]) was 64 µg/mL.

“Pseudomonas aeruginosa clinical isolate ESP083” was tested, and the “minimum concentration eradicating biofilm below detection limit” value (colistin [1]) was 256 µg/mL, the “minimum concentration eradicating biofilm below detection limit” value (tobramycin [2]) was > 1020 µg/mL and the “minimum concentration of killing” value (colistin [3]) was 4 µg/mL. For the same test system, the “minimum concentration of killing” value (colistin [4]) was 64 µg/mL, the “minimum concentration of killing” value (tobramycin [5]) was > 1020 µg/mL and the “minimum concentration of killing” value (tobramycin [6]) was > 1020 µg/mL. For the same test system, the “minimum concentration of killing” value (colistin [7]) was 256 µg/mL and the “minimum concentration of killing” value (tobramycin [8]) was > 1020 µg/mL.

“Pseudomonas aeruginosa clinical isolate ESP088” was tested, and the “minimum concentration eradicating biofilm below detection limit” value (colistin [1]) was 256 µg/mL, the “minimum concentration eradicating biofilm below detection limit” value (tobramycin [2]) was > 1020 µg/mL and the “minimum concentration of killing” value (colistin [3]) was 64 µg/mL. For the same test system, the “minimum concentration of killing” value (colistin [4]) was 64 µg/mL, the “minimum concentration of killing” value (tobramycin [5]) was 256 µg/mL and the “minimum concentration of killing” value (tobramycin [6]) was 1020 µg/mL. For the same test system, the “minimum concentration of killing” value (colistin [7]) was 256 µg/mL and the “minimum concentration of killing” value (tobramycin [8]) was > 1020 µg/mL.

“Pseudomonas aeruginosa clinical isolate ESP091” was tested, and the “minimum concentration eradicating biofilm below detection limit” value (colistin [1]) was 256 µg/mL, the “minimum concentration eradicating biofilm below detection limit” value (tobramycin [2]) was 1020 µg/mL and the “minimum concentration of killing” value (colistin [3]) was 256 µg/mL. The “minimum concentration of killing” value (colistin [4]) was 256 µg/mL, the “minimum concentration of killing” value (tobramycin [5]) was 64 µg/mL and the “minimum concentration of killing” value (tobramycin [6]) was 64 µg/mL. The “minimum concentration of killing” value (colistin [7]) was 256 µg/mL and the “minimum concentration of killing” value (tobramycin [8]) was 1020 µg/mL.

For “Pseudomonas aeruginosa clinical isolate ESP093”, the “minimum concentration eradicating biofilm below detection limit” value (colistin [1]) was 256 µg/mL, the “minimum concentration eradicating biofilm below detection limit” value (tobramycin [2]) was > 1020 µg/mL and the “minimum concentration of killing” value (colistin [3]) was 16 µg/mL. For the same test system, the “minimum concentration of killing” value (colistin [4]) was 64 µg/mL, the “minimum concentration of killing” value (tobramycin [5]) was 4 µg/mL and the “minimum concentration of killing” value (tobramycin [6]) was 1020 µg/mL. For the same test system, the “minimum concentration of killing” value (colistin [7]) was 256 µg/mL and the “minimum concentration of killing” value (tobramycin [8]) was > 1020 µg/mL.

With “Pseudomonas aeruginosa clinical isolate F1688” the “minimum concentration eradicating biofilm below detection limit” value (colistin [1]) was 256 µg/mL, the “minimum concentration eradicating biofilm below detection limit” value (tobramycin [2]) was 256 µg/mL and the “minimum concentration of killing” value (colistin [3]) was 16 µg/mL. For the same test system, the “minimum concentration of killing” value (colistin [4]) was 256 µg/mL, the “minimum concentration of killing” value (tobramycin [5]) was 4 µg/mL and the “minimum concentration of killing” value (tobramycin [6]) was 4 µg/mL. The “minimum concentration of killing” value (colistin [7]) was 256 µg/mL and the “minimum concentration of killing” value (tobramycin [8]) was 256 µg/mL.

For “Pseudomonas aeruginosa clinical isolate F1706”, the “minimum concentration eradicating biofilm below detection limit” value (colistin [1]) was 256 µg/mL, the “minimum concentration eradicating biofilm below detection limit” value (tobramycin [2]) was 256 µg/mL and the “minimum concentration of killing” value (colistin [3]) was 256 µg/mL. For the same test system, the “minimum concentration of killing” value (colistin [4]) was 256 µg/mL, the “minimum concentration of killing” value (tobramycin [5]) was 4 µg/mL and the “minimum concentration of killing” value (tobramycin [6]) was 16 µg/mL. The “minimum concentration of killing” value (colistin [7]) was 256 µg/mL and the “minimum concentration of killing” value (tobramycin [8]) was 16 µg/mL.

“Pseudomonas aeruginosa clinical isolate F1720” was tested, and the “minimum concentration eradicating biofilm below detection limit” value (colistin [1]) was 256 µg/mL, the “minimum concentration eradicating biofilm below detection limit” value (tobramycin [2]) was > 1020 µg/mL and the “minimum concentration of killing” value (colistin [3]) was ≤ 1 µg/mL. The “minimum concentration of killing” value (colistin [4]) was 64 µg/mL, the “minimum concentration of killing” value (tobramycin [5]) was 4 µg/mL and the “minimum concentration of killing” value (tobramycin [6]) was 64 µg/mL. The “minimum concentration of killing” value (colistin [7]) was 256 µg/mL and the “minimum concentration of killing” value (tobramycin [8]) was 1020 µg/mL.

“Pseudomonas aeruginosa clinical isolate F1727” was tested, and the “minimum concentration eradicating biofilm below detection limit” value (colistin [1]) was 256 µg/mL, the “minimum concentration eradicating biofilm below detection limit” value (tobramycin [2]) was 1020 µg/mL and the “minimum concentration of killing” value (colistin [3]) was 256 µg/mL. For the same test system, the “minimum concentration of killing” value (colistin [4]) was 256 µg/mL, the “minimum concentration of killing” value (tobramycin [5]) was 4 µg/mL and the “minimum concentration of killing” value (tobramycin [6]) was 4 µg/mL. For the same test system, the “minimum concentration of killing” value (colistin [7]) was 256 µg/mL and the “minimum concentration of killing” value (tobramycin [8]) was 1020 µg/mL.

In the case of “Pseudomonas aeruginosa clinical isolate F1757”, the “minimum concentration eradicating biofilm below detection limit” value (colistin [1]) is reported as 256 µg/mL, the “minimum concentration eradicating biofilm below detection limit” value (tobramycin [2]) is reported as > 1020 µg/mL and the “minimum concentration of killing” value (colistin [3]) is reported as 64 µg/mL. The “minimum concentration of killing” value (colistin [4]) was 64 µg/mL, the “minimum concentration of killing” value (tobramycin [5]) was ≤ 1 µg/mL and the “minimum concentration of killing” value (tobramycin [6]) was 64 µg/mL. The “minimum concentration of killing” value (colistin [7]) was 64 µg/mL and the “minimum concentration of killing” value (tobramycin [8]) was > 1020 µg/mL.

For “Pseudomonas aeruginosa clinical isolate F1758”, the “minimum concentration eradicating biofilm below detection limit” value (colistin [1]) was 256 µg/mL, the “minimum concentration eradicating biofilm below detection limit” value (tobramycin [2]) was 1020 µg/mL and the “minimum concentration of killing” value (colistin [3]) was 64 µg/mL. The “minimum concentration of killing” value (colistin [4]) was 256 µg/mL, the “minimum concentration of killing” value (tobramycin [5]) was 16 µg/mL and the “minimum concentration of killing” value (tobramycin [6]) was 256 µg/mL. For the same test system, the “minimum concentration of killing” value (colistin [7]) was 256 µg/mL and the “minimum concentration of killing” value (tobramycin [8]) was 1020 µg/mL.

With “Pseudomonas aeruginosa clinical isolate F1759” the “minimum concentration eradicating biofilm below detection limit” value (colistin [1]) was 256 µg/mL, the “minimum concentration eradicating biofilm below detection limit” value (tobramycin [2]) was 256 µg/mL and the “minimum concentration of killing” value (colistin [3]) was 64 µg/mL. For the same test system, the “minimum concentration of killing” value (colistin [4]) was 256 µg/mL, the “minimum concentration of killing” value (tobramycin [5]) was ≤ 1 µg/mL and the “minimum concentration of killing” value (tobramycin [6]) was 4 µg/mL. The “minimum concentration of killing” value (colistin [7]) was 256 µg/mL and the “minimum concentration of killing” value (tobramycin [8]) was 64 µg/mL.

In the case of “Pseudomonas aeruginosa clinical isolate F1764”, the “minimum concentration eradicating biofilm below detection limit” value (colistin [1]) is reported as 64 µg/mL, the “minimum concentration eradicating biofilm below detection limit” value (tobramycin [2]) is reported as > 1020 µg/mL and the “minimum concentration of killing” value (colistin [3]) is reported as 16 µg/mL. The “minimum concentration of killing” value (colistin [4]) was 64 µg/mL, the “minimum concentration of killing” value (tobramycin [5]) was 16 µg/mL and the “minimum concentration of killing” value (tobramycin [6]) was 64 µg/mL. The “minimum concentration of killing” value (colistin [7]) was 64 µg/mL and the “minimum concentration of killing” value (tobramycin [8]) was 1020 µg/mL.

With “Pseudomonas aeruginosa clinical isolate F1775” the “minimum concentration eradicating biofilm below detection limit” value (colistin [1]) was 256 µg/mL, the “minimum concentration eradicating biofilm below detection limit” value (tobramycin [2]) was 1020 µg/mL and the “minimum concentration of killing” value (colistin [3]) was 16 µg/mL. For the same test system, the “minimum concentration of killing” value (colistin [4]) was 256 µg/mL, the “minimum concentration of killing” value (tobramycin [5]) was ≤ 1 µg/mL and the “minimum concentration of killing” value (tobramycin [6]) was ≤ 1 µg/mL. The “minimum concentration of killing” value (colistin [7]) was 256 µg/mL and the “minimum concentration of killing” value (tobramycin [8]) was 16 µg/mL.

In the case of “Pseudomonas aeruginosa clinical isolate F1800”, the “minimum concentration eradicating biofilm below detection limit” value (colistin [1]) is reported as 1020 µg/mL, the “minimum concentration eradicating biofilm below detection limit” value (tobramycin [2]) is reported as 1020 µg/mL and the “minimum concentration of killing” value (colistin [3]) is reported as 16 µg/mL. The “minimum concentration of killing” value (colistin [4]) was 256 µg/mL, the “minimum concentration of killing” value (tobramycin [5]) was ≤ 1 µg/mL and the “minimum concentration of killing” value (tobramycin [6]) was ≤ 1 µg/mL. The “minimum concentration of killing” value (colistin [7]) was 1020 µg/mL and the “minimum concentration of killing” value (tobramycin [8]) was 256 µg/mL.

“Pseudomonas aeruginosa clinical isolate F1823” was tested, and the “minimum concentration eradicating biofilm below detection limit” value (colistin [1]) was 1020 µg/mL, the “minimum concentration eradicating biofilm below detection limit” value (tobramycin [2]) was > 1020 µg/mL and the “minimum concentration of killing” value (colistin [3]) was 64 µg/mL. For the same test system, the “minimum concentration of killing” value (colistin [4]) was 256 µg/mL, the “minimum concentration of killing” value (tobramycin [5]) was 4 µg/mL and the “minimum concentration of killing” value (tobramycin [6]) was 64 µg/mL. For the same test system, the “minimum concentration of killing” value (colistin [7]) was 256 µg/mL and the “minimum concentration of killing” value (tobramycin [8]) was > 1020 µg/mL.

With “Pseudomonas aeruginosa clinical isolate F1856” the “minimum concentration eradicating biofilm below detection limit” value (colistin [1]) was 64 µg/mL, the “minimum concentration eradicating biofilm below detection limit” value (tobramycin [2]) was 1020 µg/mL and the “minimum concentration of killing” value (colistin [3]) was 4 µg/mL. For the same test system, the “minimum concentration of killing” value (colistin [4]) was 16 µg/mL, the “minimum concentration of killing” value (tobramycin [5]) was 256 µg/mL and the “minimum concentration of killing” value (tobramycin [6]) was 1020 µg/mL. For the same test system, the “minimum concentration of killing” value (colistin [7]) was 64 µg/mL and the “minimum concentration of killing” value (tobramycin [8]) was 1020 µg/mL.

“Pseudomonas aeruginosa clinical isolate F1862” was tested, and the “minimum concentration eradicating biofilm below detection limit” value (colistin [1]) was 256 µg/mL, the “minimum concentration eradicating biofilm below detection limit” value (tobramycin [2]) was 256 µg/mL and the “minimum concentration of killing” value (colistin [3]) was 256 µg/mL. For the same test system, the “minimum concentration of killing” value (colistin [4]) was 256 µg/mL, the “minimum concentration of killing” value (tobramycin [5]) was 64 µg/mL and the “minimum concentration of killing” value (tobramycin [6]) was 256 µg/mL. For the same test system, the “minimum concentration of killing” value (colistin [7]) was 256 µg/mL and the “minimum concentration of killing” value (tobramycin [8]) was 256 µg/mL.
